Where “and” joins values, the source holds several entries; their conditions need not be identical. Equal entries are not always repeated.
Tests used:
in vivo = details: mouse, po; for LD50 at 7 days: both, ICR
[1] = tested on: model rats of middle cerebral artery thrombosis (MCAT); test: Effects on neural symptoms of MCAT rats (behavioral score); format: in vivo, SD rats; details: for Scores 6 hours: 6 hours after operation; for Scores 6 hours / Scores 24 hours: full mark 4; for Scores 24 hours: 24 hours after operation; for % inhibition at hour 24 / alleviation on neural symptoms at 24 hours after the operation (in words): vs. model group; for alleviation on neural symptoms at 24 hours after the operation (in words): 50 mg/kg, P<0.01 or P<0.05
[2] = Stability to light (purity by HPLC); details: light test, 10 days
Description: Tests were conducted for 10 days in accordance with the testing method as described in Pharmacopoeia of P.R. China, 2000 ed., appendix XIX C of part two, "Guideline for testing the stability of medicament: method for testing stability to light". The purity was determined in accordance with the test described in Pharmacopoeia of P.R. China, 2000 ed., appendix VD of part two, by using HPLC method, C18 column, mobile phase of acetonitrile:0.02M sodium dihydrogen phosphate = 40:60, detecting wavelength of 230 nm, flow rate of 1 ml/min.

[3] = tested on: thrombosis of artery-vein bypass in rats; test: Effects on thrombosis of artery-vein bypass in rats; format: in vivo, SD rats; details: for Dry-weight of thrombus / Wet-weight of thrombus: once per day for 3 days; for Inhibition (dry-weight of thrombus) / Inhibition (wet-weight of thrombus): vs. thrombus model group
[4] = tested on: model rats of middle cerebral artery thrombosis (MCAT); test: Effects on cerebral infarct area of MCAT rats (TTC staining); format: in vivo, SD rats; details: for cerebral infarct compared with the model group (in words): 50 mg/kg, P<0.05
[5] = Thermal stability (purity by HPLC); details: 10 days at 60°C
Description: Tests were conducted for 10 days at 60°C in accordance with the testing method as described in Pharmacopoeia of P.R. China, 2000 ed., appendix XIX C of part two, "Guideline for testing the stability of medicament: method for testing thermal stability". The purity was determined in accordance with the test described in Pharmacopoeia of P.R. China, 2000 ed., appendix VD of part two, by using HPLC method, C18 column, mobile phase of acetonitrile:0.02M sodium dihydrogen phosphate = 40:60, detecting wavelength of 230 nm, flow rate of 1 ml/min.

[6] = Stability of aqueous solution (decomposed products by HPLC); format: physicochemical; details: aqueous solution 0.2 mg/ml, exposed to water for 24 hours
[7] = 50 mg/kg by gavage, 24 hours after operation
[8] = 50 mg/kg by gavage, vs. model group
[9] = 100 mg/kg by gavage, 24 hours after operation
[10] = 100 mg/kg by gavage, vs. model group
[11] = 200 mg/kg by gavage, 24 hours after operation
[12] = 200 mg/kg by gavage, vs. model group

## CCCCC(=O)c1ccccc1C(=O)[O-].[K+] [Potassium 2-(α-n-pentanonyl)benzoate, potassium 2-(α-n-pentanonyl)benzoate]
In vivo
  LD50 at 7 days: 2720 mg/kg
[1]; 50 mg/kg by gavage
  Scores 6 hours: 3.27±0.79
  Scores 24 hours: 2.91±0.70
  % inhibition at hour 24: 20.05%
[1]
  alleviation on neural symptoms at 24 hours after the operation (in words): significantly alleviation
[1]; 100 mg/kg by gavage
  Scores 6 hours: 3.36±0.67
  Scores 24 hours: 2.82±0.75
  % inhibition at hour 24: 24.40%
[1]; 200 mg/kg by gavage
  Scores 6 hours: 3.20±0.63
  Scores 24 hours: 2.10 ± 0.32 s
  % inhibition at hour 24: 43.70%
[2]
  decomposed product (stability to light): no decomposed product
[3]; 50 mg/kg by gavage
  Dry-weight of thrombus: 38.3 ± 15.4 mg
  Wet-weight of thrombus: 208.8 ± 45.3 mg
[3]; 50 mg/kg
  Inhibition (dry-weight of thrombus): 25.34%
  Inhibition (wet-weight of thrombus): 19.44%
[3]; 100 mg/kg by gavage
  Dry-weight of thrombus: 35.6 ± 14.0 mg
  Wet-weight of thrombus: 192.6 ± 41.2 mg
[3]; 100 mg/kg
  Inhibition (dry-weight of thrombus): 30.60%
  Inhibition (wet-weight of thrombus): 25.69%
[3]; 200 mg/kg by gavage
  Dry-weight of thrombus: 28.3 ± 16.3 mg
  Wet-weight of thrombus: 157.0 ± 51.4 mg
[3]; 200 mg/kg
  Inhibition (dry-weight of thrombus): 44.8%
  Inhibition (wet-weight of thrombus): 39.43%
[3]; 200 mg/kg, listed as potassium 2-(α-n-pentanonyl)benzoate
  Inhibition (dry-weight of thrombus): 44.83%
[4]; [7]
  Cerebral infarct tissue weight/total brain weight: 5.63±1.52 %
[4]; [8]
  Inhibition (cerebral infarct): 24.02%
[4]
  cerebral infarct compared with the model group (in words): significantly reduced
[4]; [9]
  Cerebral infarct tissue weight/total brain weight: 5.09±2.04 %
[4]; [10]
  Inhibition (cerebral infarct): 35.89%
[4]; [11]
  Cerebral infarct tissue weight/total brain weight: 4.38±1.54 %
[4]; [12]
  Inhibition (cerebral infarct): 42.44%
[5]
  decomposed product (thermal stability): no decomposed product
[6]
  decomposed product: no decomposed product

## CCC/C=C1/OC(=O)c2ccccc21 [3-n-butenylphthalide]
In vivo
  LD50 at 168 h: 2570 mg/kg
[1]; 50 mg/kg by gavage
  Scores 6 hours: 3.50±0.53
  Scores 24 hours: 3.40±0.52
  % inhibition at hour 24: 6.59%
[1]; 100 mg/kg by gavage
  Scores 6 hours: 3.36±0.81
  Scores 24 hours: 2.91±0.70
  % inhibition at hour 24: 21.98%
[1]; 200 mg/kg by gavage
  Scores 6 hours: 3.36±0.67
  Scores 24 hours: 3.00±0.63
  % inhibition at hour 24: 19.57%
[3]; 50 mg/kg by gavage
  Dry-weight of thrombus: 28.6 ± 9.6 mg
  Wet-weight of thrombus: 169.9 ± 28.8 mg
[3]; 50 mg/kg
  Inhibition (dry-weight of thrombus): 24.74%
  Inhibition (wet-weight of thrombus): 19.59%
[3]; 100 mg/kg by gavage
  Dry-weight of thrombus: 22.9 ± 11.9 mg
  Wet-weight of thrombus: 137.5 ± 47.4 mg
[3]; 100 mg/kg
  Inhibition (dry-weight of thrombus): 39.74%
  Inhibition (wet-weight of thrombus): 34.93%
[3]; 200 mg/kg by gavage
  Dry-weight of thrombus: 24.9 ± 12.3 mg
  Wet-weight of thrombus: 141.6 ± 41.2 mg
[3]; 200 mg/kg
  Inhibition (dry-weight of thrombus): 34.47%
  Inhibition (wet-weight of thrombus): 32.99%
[4]; rat, in vivo
  Cerebral infarct tissue weight/total brain weight: 5.90±1.50% and 5.49±2.14 %
  Inhibition (cerebral infarct): 20.38% and 28.84% and 27.86%

## CCCCC(=O)c1ccccc1C(=O)[O-].[Na+] [Sodium 2-(α-n-pentanonyl)benzoate, sodium 2-(α-n-pentanonyl)benzoate]
In vivo
  LD50 at 7 days: 2650 mg/kg
[1]; 50 mg/kg by gavage
  Scores 6 hours: 3.40±0.70
  Scores 24 hours: 3.00±0.67
  % inhibition at hour 24: 17.58%
[1]
  alleviation on neural symptoms at 24 hours after the operation (in words): significantly alleviation
[1]; 100 mg/kg by gavage
  Scores 6 hours: 3.10±0.74
  Scores 24 hours: 2.80±0.79
  % inhibition at hour 24: 24.93%
[1]; 200 mg/kg by gavage
  Scores 6 hours: 3.27±0.65
  Scores 24 hours: 2.82±0.40
  % inhibition at hour 24: 24.40%
[2]
  decomposed product (stability to light): no decomposed product
[3]; 50 mg/kg by gavage
  Dry-weight of thrombus: 26.2 ± 9.7 mg
  Wet-weight of thrombus: 138.8 ± 41.1 mg
[3]; 50 mg/kg
  Inhibition (dry-weight of thrombus): 31.05%
  Inhibition (wet-weight of thrombus): 34.31%
[3]; 100 mg/kg by gavage
  Dry-weight of thrombus: 19.7 ± 7.8 mg
  Wet-weight of thrombus: 115.4 ± 42.3 mg
[3]; 100 mg/kg
  Inhibition (dry-weight of thrombus): 48.16%
  Inhibition (wet-weight of thrombus): 45.39%
[3]; 200 mg/kg by gavage
  Dry-weight of thrombus: 22.4 ± 10.1 mg
  Wet-weight of thrombus: 131.1 ± 48.0 mg
[3]; 200 mg/kg
  Inhibition (dry-weight of thrombus): 41.05%
  Inhibition (wet-weight of thrombus): 37.96%
[4]; [7]
  Cerebral infarct tissue weight/total brain weight: 5.26±2.26 %
[4]; [8]
  Inhibition (cerebral infarct): 29.01%
[4]
  cerebral infarct compared with the model group (in words): significantly reduced
[4]; [9]
  Cerebral infarct tissue weight/total brain weight: 4.99±1.83 %
[4]; [10]
  Inhibition (cerebral infarct): 37.16%
[4]; [11]
  Cerebral infarct tissue weight/total brain weight: 5.19±2.40 %
[4]; [12]
  Inhibition (cerebral infarct): 31.80%
[5]
  decomposed product (thermal stability): no decomposed product
[6]
  decomposed product: no decomposed product

## CCCCC1OC(=O)c2ccccc21 (racemic) [DL-3-n-butylphthalide]
In vivo
  LD50 at 168 h: 2190 mg/kg
[1]; 50 mg/kg by gavage
  Scores 6 hours: 3.36±0.81
  Scores 24 hours: 3.09±0.54
  % inhibition at hour 24: 15.11%
[1]
  alleviation on neural symptoms at 24 hours after the operation (in words): significantly alleviation
[1]; 100 mg/kg by gavage
  Scores 6 hours: 3.36±0.50
  Scores 24 hours: 3.09±0.70
  % inhibition at hour 24: 17.16%
[1]; 200 mg/kg by gavage
  Scores 6 hours: 3.36±0.67
  Scores 24 hours: 3.00±0.89
  % inhibition at hour 24: 19.57%
[4]; [7]
  Cerebral infarct tissue weight/total brain weight: 5.66±2.81%
[4]; [8]
  Inhibition (cerebral infarct): 23.62%
[4]; [9]
  Cerebral infarct tissue weight/total brain weight: 5.81±1.49 %
[4]; [10]
  Inhibition (cerebral infarct): 26.83%
[4]; [11]
  Cerebral infarct tissue weight/total brain weight: 5.52±1.78 %
[4]; [12]
  Inhibition (cerebral infarct): 27.46%

## CCCCC(O)c1ccccc1C(=O)O (stereo not drawn) [Calcium 2-(α-hydroxypentyl)benzoate]
[1]; 50 mg/kg by gavage
  Scores 6 hours: 3.45±0.52
  Scores 24 hours: 3.36±0.50
  % inhibition at hour 24: 7.69%
[1]; 100 mg/kg by gavage
  Scores 6 hours: 3.55±0.52
  Scores 24 hours: 3.09±0.70
  % inhibition at hour 24: 17.16%
[1]; 200 mg/kg by gavage
  Scores 6 hours: 3.45±0.52
  Scores 24 hours: 2.91±0.54
  % inhibition at hour 24: 21.98%
[4]; [7]
  Cerebral infarct tissue weight/total brain weight: 6.39±2.33%
[4]; [8]
  Inhibition (cerebral infarct): 13.77%
[4]; [9]
  Cerebral infarct tissue weight/total brain weight: 5.82±1.90 %
[4]; [10]
  Inhibition (cerebral infarct): 26.70%
[4]; [11]
  Cerebral infarct tissue weight/total brain weight: 5.41±1.77 %
[4]; [12]
  Inhibition (cerebral infarct): 28.91%

## CCCCC(O)c1ccccc1C(=O)O (stereo not drawn) [N,N'-dibenzylethylenediamine 2-(α-hydroxypentyl)benzoate] [listing 1 of 2 here]
[1]; 50 mg/kg by gavage
  Scores 24 hours: 3.09±0.54
  % inhibition at hour 24: 15.11%
[1]
  alleviation on neural symptoms at 24 hours after the operation (in words): significantly alleviation
[1]; 100 mg/kg by gavage
  Scores 24 hours: 2.91±0.70
[1]; 200 mg/kg by gavage
  Scores 6 hours: 3.36±0.67
  Scores 24 hours: 2.82±0.87
  % inhibition at hour 24: 24.40%
[4]; [7]
  Cerebral infarct tissue weight/total brain weight: 5.85±2.32%
[4]; [8]
  Inhibition (cerebral infarct): 21.05%
[4]; [9]
  Cerebral infarct tissue weight/total brain weight: 5.50±1.82 %
[4]; [10]
  Inhibition (cerebral infarct): 30.73%
[4]; [11]
  Cerebral infarct tissue weight/total brain weight: 5.09±2.14 %
[4]; [12]
  Inhibition (cerebral infarct): 33.11%

## CCCCC(O)c1ccccc1C(=O)O (stereo not drawn) [N,N'-dibenzylethylenediamine 2-(α-hydroxypentyl)benzoate] [listing 2 of 2 here]
In vivo
  LD50 at 168 h: 2810 mg/kg

Reference: patent EP1734031A1, “NOVEL 2-(ALPHA-N-PENTANONYL)BENZOETES, THEIR PREPARATION AND USE” (priority 2004, dated 2005)
